Assay results reported in publication PMC5620620, “Comparison of In Vitro Assays in Selecting Radiotracers for In Vivo P-Glycoprotein PET Imaging” (Pharmaceuticals, 2017).

What was measured:
P-gp [1] = target: T1, P-gp (Homo sapiens, UniProt P08183); experiment: Bidirectional transport of tritiated compounds in MDCKII-MDR1 cells; format: in vitro ADME; details: for Substrate In Vitro: ER 0.01 µM; for P-gp substrate behaviour in vitro: concentrations 0.01-50 µM and inhibitors; for ER 0.01 µM: tritiated compound 0.01 µM, Papp B→A/Papp A→B; for Recovery of radioactivity: all experiments, A → B and B → A directions
T1 construct: host or cells: MDCKII (canine kidney) cells transfected with human MDR1 cDNA
T1 sequence (P08183 whole entry): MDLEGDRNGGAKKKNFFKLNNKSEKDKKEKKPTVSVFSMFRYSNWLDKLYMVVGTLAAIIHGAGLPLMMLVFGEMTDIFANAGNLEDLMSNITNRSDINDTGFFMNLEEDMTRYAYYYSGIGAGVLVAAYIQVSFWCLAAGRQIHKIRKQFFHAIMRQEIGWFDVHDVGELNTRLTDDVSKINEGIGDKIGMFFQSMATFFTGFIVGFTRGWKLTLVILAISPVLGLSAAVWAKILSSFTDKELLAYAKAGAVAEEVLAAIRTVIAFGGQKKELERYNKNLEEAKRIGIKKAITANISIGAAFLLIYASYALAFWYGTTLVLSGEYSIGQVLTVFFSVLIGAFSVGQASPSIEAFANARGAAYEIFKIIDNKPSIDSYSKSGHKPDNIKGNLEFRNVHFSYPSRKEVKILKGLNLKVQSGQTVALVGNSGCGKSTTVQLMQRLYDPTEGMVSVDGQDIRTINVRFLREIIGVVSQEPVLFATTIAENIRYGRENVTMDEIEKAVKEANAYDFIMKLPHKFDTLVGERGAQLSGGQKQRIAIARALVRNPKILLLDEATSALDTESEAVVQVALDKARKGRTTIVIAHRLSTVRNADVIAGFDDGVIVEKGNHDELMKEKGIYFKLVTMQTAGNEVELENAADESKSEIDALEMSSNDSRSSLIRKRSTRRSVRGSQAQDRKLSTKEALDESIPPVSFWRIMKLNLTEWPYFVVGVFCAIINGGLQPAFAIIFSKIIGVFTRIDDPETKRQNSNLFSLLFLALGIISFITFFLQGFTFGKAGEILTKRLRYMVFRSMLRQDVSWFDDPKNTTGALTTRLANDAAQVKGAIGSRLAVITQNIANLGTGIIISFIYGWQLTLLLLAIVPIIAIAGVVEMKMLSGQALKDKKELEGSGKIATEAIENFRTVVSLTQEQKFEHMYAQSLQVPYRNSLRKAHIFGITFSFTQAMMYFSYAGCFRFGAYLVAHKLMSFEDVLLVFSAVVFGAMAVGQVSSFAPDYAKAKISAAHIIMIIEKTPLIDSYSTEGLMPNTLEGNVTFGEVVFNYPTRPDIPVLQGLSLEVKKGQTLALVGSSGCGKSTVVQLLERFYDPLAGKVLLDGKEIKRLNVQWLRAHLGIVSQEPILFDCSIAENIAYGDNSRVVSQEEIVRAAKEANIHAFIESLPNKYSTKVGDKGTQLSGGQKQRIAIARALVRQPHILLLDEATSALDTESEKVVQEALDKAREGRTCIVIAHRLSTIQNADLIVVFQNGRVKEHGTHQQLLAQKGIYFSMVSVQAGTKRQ
Description: (§1) Madin-Darby canine kidney (MDCK) II cells expressing cDNAs encoding human MDR1 (MDCKII-MDR1 cells) were obtained by TNO from the Netherlands Cancer Institute. […] Cells were counted using an automatic cell counter (Millipore, Bedford, MA, USA). […] The medium was refreshed after 48 h. It has been shown, that under these conditions the human transporter protein MDR1 localizes on the apical plasma membrane of the cells.
(§2) After three days of cell culture on Transwell, the MDCKII-MDR1 monolayers are expected to have developed a transepithelial electrical resistance (TEER) of approximately 70 Ωcm^2 higher than background (empty filter without cells). At the start of each study, TEER was measured to assess the integrity of the monolayers of MDCKII-MDR1 cells in culture medium using the Millicell-ERS epithelial voltohmmeter (Millipore). Monolayers with a TEER value less than 55 Ωcm^2 above background (empty filter) were excluded from the transport assay. […] Cell monolayers were also inspected with a microscope before starting the experiments.
(§3) Transcellular transport studies were performed as described previously with minor modifications.
(§4) After the integrity assessment, culture medium was removed from the filter inserts (apical compartment (A)). The inserts were washed once with warm (37 °C) HBSS, transferred to new 12-well plates which were preincubated with HBSS/HEPES for 18 h at 37 °C, to reduce non-specific binding to the plastic, and washed with warm HBSS. The MDR1-mediated apical to basolateral (A → B) transport in MDCKII-MDR1 cell monolayers was determined by addition of 0.65 mL of a tritiated compound in concentrations of 0.01, 1 and 50 µM to the apical compartment in triplicate. A volume of 1.8 mL of HBSS/HEPES was added to the basolateral compartment. To determine basolateral to apical (B → A) transport, 1.95 mL of a tritiated compound at concentrations of 0.01, 1 and 50 µM was added to the basolateral compartment and 0.5 ml of HBSS/HEPES to the apical compartment. A 150 µL aliquot of the apical (A → B) or basolateral (B → A) compartment was taken at the start of the experiment to measure the initial concentration and to calculate the recovery of radioactivity. […] Aliquots of the apical and basolateral samples (150 and 1600 µL for A → B and 400 and 150 µL for B → A, respectively) and samples of the initial concentration were mixed with 10 mL of liquid scintillant Ultima GoldTM (PerkinElmer Inc.). Radioactivity was determined by LSC on a Tri Carb 3100TR liquid scintillation counter using QuantaSmart^TM software (PerkinElmer Inc.) in which all counts were converted to disintegrations per minute (DPM) using tSIE/AEC (transformed spectral index of external standards coupled to automatic efficiency correction). Background values were measured for each sample sequence using liquid scintillant without test samples. Recovery of radioactivity was calculated as percentage of measured total radioactivity after the experiment versus initial radioactivity.
(§5) Subsequently, the effects of MDR1-inhibitors ketoconazole and tariquidar on the bidirectional transport of the tested tritiated compounds were examined. Stock solutions of the inhibitors ketoconazole (10 mM) and tariquidar (10 mM) were prepared in DMSO. […] These concentrations were based on IC50 values that are known to block P-gp completely.
(§6) A is the surface area of the filter insert (cm^2) and C0 the measured initial concentration, calculated from total DPM on the donor side at t = 0 min (DPM/L).
(§7) To determine the ER for the test compounds, the following equation was used:ER = Papp B → A/Papp A → B(2)

P-gp (MDR1) = target: T2, P-gp (MDR1) (Homo sapiens, UniProt P08183); experiment: as above; format: in vitro ADME; details: MDCK-MDR1; for efflux ratio at 2 h, 0.01 µM: human, read-out: ER 0.01 µM; for efflux ratio at 2 h, 1 µM / efflux ratio at 2 h, 50 µM: read-out: ER
T2 construct: host or cells: MDCKII (canine kidney) cells transfected with human MDR1 cDNA
T2 sequence (P08183 whole entry): as above
Description: as §1, §2, §3, §4, §5, §6, §7

P-gp [2] = target: T1, P-gp; experiment: Calcein-AM inhibition assay in MDCKII-MDR1 cells; format: cell-based; details: non-radioactive compounds
Description: The calcein-AM experiment was performed in MDCKII-MDR1 cells according to methods described previously. Calcein cell accumulation in the absence and in the presence of test compounds (0,1, 1, 10, 30, 50 and 100 µM) was evaluated and the basal level of fluorescence was measured in untreated cells. EC50 values were determined by fitting the fluorescence increase (in %) versus log[dose].

Log D7.4 = format: physicochemical; details: pH 7.4, this study
P-gp and/or Bcrp = experiment: Brain uptake (microPET, biodistribution) in Mdr1a/b(−/−)Bcrp1(−/−) knockout versus wild-type mice; format: in vivo; details: Mdr1a/b(−/−)Bcrp1(−/−) vs wild-type mice; for Difference in whole brain time-activity curves (SUV) between knockout and wild-type: AUC from 0 to 30 min; for P-gp substrate behaviour in vivo: tracer concentrations
Source text: All animal studies were in compliance with the local ethical guidelines. Protocols (DEC 6456C) were approved by the Institutional Animal Care and Use Committee of the University of Groningen. Male FVB wild type mice (33 ± 2 g, 11–12 weeks) and Mdr1a/b^(−/−)Bcrp1^(−/−) constitutive knockout mice (31 ± 3 g, 11–12 weeks) developed from the FVB line were purchased from Taconic (Hudson, NY, USA). After arrival, animals were housed individually and acclimatized for at least 7 days in the Central Animal Facility of the University Medical Center Groningen before experiments. Mice had access to food and water ad libitum and were kept under a 12 h light-dark cycle. During experiments, mice were anesthetized with 2% isoflurane in medical air and kept at a constant temperature using electronically controlled heating pads.
(§8) Mice were injected with radiotracers (3.5 ± 1.6 MBq, 0.1 mL, [^18F]MC198 or [^18F]KE64) in the penile vein under isoflurane anesthesia. Injections were performed with the mice in the microPET camera (microPET Focus 220, Siemens Medical Solutions, Malvern, PA, USA), simultaneously starting a 30 min dynamic emission scan. After each emission scan, a transmission scan of 515 s with a ^57Co point source was performed to correct the emission data for attenuation and scatter. Mice were terminated by cervical dislocation. Several organs and tissues were excised, weighed and radioactivity was measured in a γ-counter (LKB Wallac, Turku, Finland). Radioactivity accumulation in the organs was expressed as SUV, using the following formula: [tissue activity concentration (MBq/g)]/[injected dose (MBq)/body weight (g)]. Metabolites in the terminal plasma and brain samples were determined using a radio-TLC method described elsewhere. TLC-plates were eluted with ethylacetate/methanol 9:1 v/v (Rf [^18F]MC198 = 0.45, Rf[^18F]KE64 = 0.62). PET data were reconstructed as described previously. Inveon Research Workplace software version 4.0 (Siemens, Erlangen, Germany) was used for data analysis. All frames were summed, and PET images were co-registered with an MRI template. A whole brain volume of interest (VOI) based on the MRI template was generated. Radioactivity concentrations were converted to SUV values and plotted as time-activity curves (TAC).

[3] = Radioactive metabolites in plasma and brain by radio-TLC; format: in vivo; details: mice, 45 min p.i.
Description: as §8, with “A whole brain volume of interest (VOI) based on the MRI template was generated.” left out

P-gp [4] = experiment: In vivo P-gp substrate classification from knockout mice and/or tariquidar-treated rats; details: for Substrate In Vivo: brain-to-plasma or AUC ratio in at least one strain; for P-gp substrate classification in vivo: cutoff value of 2 for brain-to-plasma and AUC ratios
[5] = set-up: method as in PMID 26043236; details: pH 7.4; cited from earlier work
[6] = after 5 min; cited from earlier work
P-gp (human MDR1) = test system: T3, P-gp (human MDR1); experiment: Bidirectional transport of tritiated compounds in MDCKII-MDR1 cells; format: in vitro ADME; details: dog, MDCK-MDR1
T3 construct: host or cells: MDCKII (canine kidney) cells transfected with human MDR1 cDNA

Structure (SMILES): COc1cc2c(cc1OC)CN(CCCCOc1ccc(-c3ccc(OCCF)cc3)cc1)CC2 [KE64, 2-(4-(4′-(2-Fluoroethoxy)biphenyl-4-yloxy)butyl)-6,7-dimethoxy-1,2,3,4-tetrahydroisoquinoline]
- Papp values in both directions (A → B and B → A) (P-gp [1]; MDCKII-MDR1 cells, all Papp values): < 3 ×10⁻⁶ cm/s
- efflux ratio at 2 h, 0.01 µM (P-gp (MDR1)): 1.9
- EC50 (P-gp [2]): 14 nM
- logD (Log D7.4): 3.2
- Difference in whole brain time-activity curves (SUV) between knockout and wild-type (P-gp and/or Bcrp): 1.6 fold
- P-gp substrate behaviour in vivo (P-gp and/or Bcrp): moderate P-gp substrate in vivo
- P-gp substrate behaviour in vivo (P-gp and/or Bcrp; listed as [^18F]KE64): substrates for P-gp and/or Bcrp in vivo
- Fraction of intact parent compound in plasma [3]: 26%
- Substrate In Vivo (P-gp [4]): + (in vivo brain-to-plasma or AUC ratio > 2 in at least one strain)
- P-gp substrate classification in vivo (P-gp [4]): weak substrates

Structure (SMILES): COc1cc2c(cc1OC)CN(CC/C=C1\CCCc3c(OCCF)cccc31)CC2 [MC198, (E)-2-(3-(5-(2-Fluoroethoxy)-3,4-dihydronaphthalen-1(2H)-ylidene)propyl)-6,7-dimethoxy-1,2,3,4-tetra-hydroisoquinoline]
- Substrate In Vitro (P-gp [1]; MDCKII-MDR1 cells): + (Definition as substrate (+) in vitro was ER > 2)
- P-gp substrate behaviour in vitro (P-gp [1]; MDCKII-MDR1 cells): some affinity but very low capacity for P-gp mediated transport
- ER 0.01 µM (P-gp [1]; MDCKII-MDR1 cells): above 2
- efflux ratio at 2 h, 1 µM (P-gp (MDR1); dog, MDCKII-MDR1 cells, 1 µM): < 2
- efflux ratio at 2 h, 50 µM (P-gp (MDR1); dog, MDCKII-MDR1 cells): < 2
- efflux ratio at 2 h, 0.01 µM (P-gp (MDR1)): 2.1
- EC50 (P-gp [2]): 270 nM
- logD (Log D7.4): 2.3
- Difference in whole brain time-activity curves (SUV) between knockout and wild-type (P-gp and/or Bcrp): 1.7 fold
- P-gp substrate behaviour in vivo (P-gp and/or Bcrp): substrates for P-gp and/or Bcrp in vivo
- Fraction of intact parent compound in plasma [3]: 34%
- Substrate In Vivo (P-gp [4]): + (in vivo brain-to-plasma or AUC ratio > 2 in at least one strain)
- P-gp substrate classification in vivo (P-gp [4]): weak substrates

Structure (SMILES): COc1cc2c(cc1OC)CN(Cc1ccc(-c3ccc(OCCF)cc3)cc1)CC2 [MC224]
- Log D7.4 [5]: 2.9

Structure (SMILES): COc1cc2c(cc1OC)CN(CCCC1CCCc3c(OCCF)cccc31)CC2 (stereo not shown) [MC225]
- Substrate In Vivo (P-gp [4]): + (in vivo brain-to-plasma or AUC ratio > 2 in at least one strain)
- Log D7.4 [5]: 3.0

Structure (SMILES): COc1ccc(CCN(CCF)CCC[C@](C#N)(c2ccc(OC)c(OC)c2)C(C)C)cc1OC [N-FeVer, (R)-N-[^18F]fluoroethylverapamil]
- Substrate In Vitro (P-gp [1]; MDCKII-MDR1 cells): + (Definition as substrate (+) in vitro was ER > 2)
- Recovery of radioactivity (P-gp [1]): ≥ 76%
- efflux ratio at 2 h, 0.01 µM (P-gp (MDR1)): 2.8
- EC50 (P-gp [2]): 1100 nM
- Substrate In Vivo (P-gp [4]): + (in vivo brain-to-plasma or AUC ratio > 2 in at least one strain)
- Log D7.4 [5]: 2.0
- Parent compound, of total activity in plasma [6]: 46%

Structure (SMILES): COc1ccc([C@@](C#N)(CCCNCCc2ccc(OCCF)c(OC)c2)C(C)C)cc1OC [O-FeVer, (R)-O-[^18F]fluoroethylnorverapamil]
- ER after inhibition with ketoconazole (P-gp [1]; MDCKII-MDR1 cells, 0.01 µM + ketoconazole 25 µM): higher than 2
- Substrate In Vitro (P-gp [1]; MDCKII-MDR1 cells): + (Definition as substrate (+) in vitro was ER > 2)
- P-gp substrate behaviour in vitro (P-gp [1]; MDCKII-MDR1 cells): behaved like a P-gp substrate
- ER 0.01 µM (P-gp [1]; MDCKII-MDR1 cells): > 30
- Recovery of radioactivity (P-gp [1]): ≥ 76%
- Papp A→B at 2 h, 0.01 µM (P-gp (MDR1); dog, MDCKII-MDR1 cells, 0.01 µM): < 2 ×10⁻⁶ cm/s
- Papp A→B at 2 h, 1 µM (P-gp (MDR1); dog, MDCKII-MDR1 cells, 1 µM): < 2 ×10⁻⁶ cm/s
- efflux ratio at 2 h, 1 µM (P-gp (MDR1); dog, MDCKII-MDR1 cells, 1 µM): > 30
- efflux ratio at 2 h, 50 µM (P-gp (MDR1); dog, MDCKII-MDR1 cells): > 2
- efflux ratio at 2 h, 0.01 µM (P-gp (MDR1)): 37
- EC50 (P-gp [2]): 2400 nM
- Substrate In Vivo (P-gp [4]): + (in vivo brain-to-plasma or AUC ratio > 2 in at least one strain)
- Log D7.4 [5]: 1.6
- Parent compound, of total activity in plasma [6]: 20%

Structure (SMILES): C[C@H]1O[C@@H](O[C@H]2[C@@H](O)C[C@H](O[C@H]3[C@@H](O)C[C@H](O[C@H]4CC[C@@]5(C)[C@H](CC[C@@H]6[C@@H]5C[C@@H](O)[C@]5(C)[C@@H](C7=CC(=O)OC7)CC[C@]65O)C4)O[C@@H]3C)O[C@@H]2C)C[C@H](O)[C@@H]1O [[^3H]Digoxin, digoxin]
- Papp A→B at 2 h, 0.05 µM (P-gp (human MDR1)): < 1 ×10⁻⁶ cm/s
- Papp B→A at 2 h, 0.05 µM (P-gp (human MDR1)): > 15 ×10⁻⁶ cm/s
